Results published in patent US20110105436A1, “HETEROARYL COMPOUNDS, COMPOSITIONS, AND METHODS OF USE IN CANCER TREATMENT” (AUCKLAND UNISERVICES LIMITED, priority 2008, published 2011).

Key:
Format in all cases: cell-based
LC3 = LC3 processing by Western blot and immunostaining; conditions: for effect of inhibitor on vacuole formation and LC3-II induced by STF-62247: co-treatment with 1.25 μM STF-62247, 20 hrs, VHL-deficient RCC cells; for toxicity, vacuole formation and LC3-lipidated form (autophagy) of analogs: 1.25 μM, 20 hours, FIG. 5A-B
Method: (§1) Western blot analysis. After treatments, cells were lysed in urea buffer (9M urea, 75 mM Tris (pH 7.5), 150 mM b-mercaptoethanol), placed on ice for 10 minutes and sonicated briefly (15 seconds). Extracts were centrifugated at 8,000×g for 10 minutes to eliminate insoluble material. Lysates were quantitated using Bio-Rad protein Assay (Bio-Rad Laboratories) and 20-30 μg of proteins were separated on a 7.5% or 15% bis-acrylamide gels and then transferred onto PVDF membranes. Proteins were visualized using HIF-2α (Novus Biological), HIF-1α, pVHL and BiP (BD Biosciences), LC3 (MBL), Atg5, or α-tubulin antibodies.
Immunofluorescence staining. Cells were seeded on glass coverslips and at subconfluence, STF-62247 was added at 1.25 μM for RCC4 and 3.75 μM for SN12C. After 20 hours, cells were fixed in 3.7% formaldehyde for 10 min at room temperature and washed in PBS. Then cells were permeabilized in 0.2% Triton X-100 for 5 min at room temperature and washed in PBS. The coverslips were incubated with primary antibody LC3 diluted 1:500 in PBS containing 0.2% BSA for 1 hour at room temperature. Cells were washed three times in PBS-BSA and the bound primary antibody was detected using a fluorescein-conjugated secondary antibody (ALEXA) diluted 1:500 in PBS-BSA and incubated for 1 hour. Coverslips were washed and mounted in mounting medium from Vector Laboratories according to the manufacturer's instructions. Cells were examined with a confocal microscope
A. Phase contrast pictures of VHL-deficient RCC4 and SN12C-VHL shRNA cells and VHL-positive cells RCC4 and SN12C after 20 hrs of 1.25 μM STF-62247. B. Immunostaining for LC3 following STF-62247 treatment at 1.25 μM for 20 hrs with or without 2 mM of 3-MA in RCC4 with and without VHL cells. After treatment, cells were fixed, permeabilized and processed for the detection of punctuate staining by indirect immunofluorescence. C. Autophagic vacuoles stained with monodansylcadaverine (MDC). After STF-62247 treatment in the same conditions, MDC was added for the last 10 minutes. Cells were fixed, washed with PBS and observed directly under microscope. D. Western blot for LC3 in RCC4, RCC4/VHL, SN12C, and SN12C-VHL shRNA cells after STF-62247 treatment with or without 3-MA. Nutrient starvation (EBSS) is used as positive control. E. Western blot for LC3 in RCC4 and RCC4/VHL with different concentrations of STF-62247. Tubulin was used as loading control. F. Cell viability assay in VHL-deficient RCC4 and wild-type VHL cells treated with 1 mM of 3-MA, 1.25 μM of STF-62247 alone or in combination for 24 hrs. Viability is measured by trypan blue exclusion assay and is represented by the average of three different experiments in duplicate as the percent of treated on untreated cells. The error bars are represented as SEM.
(§2) A. VHL-deficient RCC4 and wild-type VHL were incubated in presence of 10 μM LY294002, or 1 μg/mlBrefeldin A with 1.25 μM of STF-62247 for 20 hrs and the presence of vacuoles was examined under light microscopy. B,C. LC3 processing was evaluated by Western blot after the treatment with Brefeldin A or LY294002 in presence or absence of STF-62247 as described above. Tubulin was used as loading control. D. Cells were treated with 1.25 μM of STF-62247 with or without 2 mM of 3-MA, 1 μg/ml of Brefeldin A for 20 hrs. For the last 15 min, acidic components were stained with 1 μg/ml of acridine orange and visualized under fluorescence microscope. […] F. Quantification of the FACS analysis. The data are calculated as the average of three different experiments as relative units of treated over untreated cells. The error bars are represented as the standard error of the mean (SEM).
B,C. LC3 processing was evaluated by Western blot after the treatment with U0126 or tunicamycin in presence or absence of STF-62247 as described above. Tubulin was used as loading control.

BiP (Grp78) = test: Western blot for BiP (ER stress); conditions: 2 μg/ml tunicamycin, FIG. 9C
Method: as §1
B,C. LC3 processing was evaluated by Western blot after the treatment with U0126 or tunicamycin in presence or absence of STF-62247 as described above. Tubulin was used as loading control. D. FACS analysis to measure the acidic vesicle organelles after staining with acridine orange in SN12C and SN12C-VHL shRNA following treatment with STF-62247 for 24 hours. E. AVO quantification from the FACS analysis in A. F. Autophagic vacuoles stained with MDC. After STF-62247 treatment with or without 3-MA, NH4Cl, MDC was added the last 10 minutes. Then, cells were fixed, washed with PBS and observed directly under microscope.

[1] = test system: RCC4, RCC4/VHL, SN12C and SN12C-VHL shRNA cells; test: Acidic vesicle organelles with acridine orange (FACS); conditions: for effect of inhibitor on autolysosomal acidification induced by STF-62247: 2 mM 3-MA or 1 μg/ml Brefeldin A with 1.25 μM STF-62247, 20 hrs; for acridine orange staining / amount of AVOs: 1.25 μM, VHL-deficient versus wild-type VHL cells
Method: Quantification of Acidic Vesicle Organelles with Acridine Orange. In acridine orange-stained cells, the cytoplasm and nucleus are bright green and dim red, whereas acidic compartments are bright red. The intensity of the red fluorescence is proportional to the degree of acidity. Following 20 hours of treatment with STF-62247 or analogs, cells were stained with 1 μg/ml of acridine orange for 15 min. Cells were trypsinized and then analyzed by flow cytometry using FACScan cytometer and CellQuest software.
as §2
(§3) A. RCC4 and RCC4/VHL were treated with 1.25 μM of each 19 analogs for 20 hours and the presence of vacuoles was examined under light microscopy. B. Western blot for LC3 after treatment with each compound. Tubulin was used as loading control. Ratio is the relative from the IC50 in RCC4/VHL cells/IC50 in RCC4 cells. C. Acidic vesicle organelles (AVO) measured by FACS analysis in cells treated with 1.25 μM of STF-62247 or with compounds 21, 15, 25, 47, and 53 and stained with acridine orange.

[2] = test system: VHL-deficient RCC4 and wild-type VHL cells; test: Cell viability by trypan blue exclusion; conditions: 1 mM 3-MA, 1.25 μM STF-62247, 24 hours, FIG. 2F
Method: (§4) Cell Viability and XTT assays. For cell viability, 100,000 cells were plated in a 12-well plate. The following day, 1.25 μM STF-62247 was added in the presence or absence of 1 mM 3-MA for 24 hours at 37° C. Cells were trypsinized and counted by trypan blue exclusion. For XTT assays, 5000 RCC4 with and without VHL cells or 2,500 SN12C with and without VHL shRNA cells were plated in 96-well plates. The following day, vehicle (DMSO), STF-62247 or each of 19 analogs were added to media by serial dilution. Four days later, the media was aspirated and XTT solution containing 0.3 mg/ml of XTT (Sigma Chemical Co) in Phenol Red-free media, 20% FCS and 2.65 mg/ml N-methyl dibenzopyrazine methyl sulfate (PMS) was added to the cells and incubated at 37° C. for 1-2 hours. Metabolism of XTT was quantified by measuring the absorbance at 450 nm on a plate reader.
A. Phase contrast pictures of VHL-deficient RCC4 and SN12C-VHL shRNA cells and VHL-positive cells RCC4 and SN12C after 20 hrs of 1.25 μM STF-62247. B. Immunostaining for LC3 following STF-62247 treatment at 1.25 μM for 20 hrs with or without 2 mM of 3-MA in RCC4 with and without VHL cells. […] Viability is measured by trypan blue exclusion assay and is represented by the average of three different experiments in duplicate as the percent of treated on untreated cells. […]

RCC4/VHL cells = test: XTT assay, RCC4/VHL versus RCC4 cells (selectivity ratio); conditions: for Ratio: Table 1, selectivity ratio, IC50 in RCC4/VHL cells/IC50 in RCC4 cells
Method: as §4, §3

RCC4 cells = test: XTT assay in VHL-deficient RCC4 cells; conditions: Homo sapiens, 96 h; Table 1; XTT assay, VHL-deficient RCC4 cells, four days
How it was run: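 RCC4 cells with and without VHL seeded at 5000/well, then exposed next day to serially diluted compound (DMSO vehicle) for four days. Viability read by XTT (0.3 mg/ml) with PMS, 1-2 h at 37° C, absorbance at 450 nm.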

tunicamycin [reference compound]
effect of inhibitor on vacuole formation and LC3-II induced by STF-62247 (LC3): no vacuole or LC3 processing was observed | BiP (Grp78), marker of ER stress (BiP (Grp78)): induced BiP (Grp78)

Cn1cnc(N)c2ncnc1-2 [Compound 3-MA, 3-methyladenine, reference compound]
effect of inhibitor on vacuole formation and LC3-II induced by STF-62247 (LC3): abrogated | effect of inhibitor on autolysosomal acidification induced by STF-62247 [1]: resulted in a decrease in autolysosomal acidification | viability of VHL-deficient cells treated with STF-62247 in presence of inhibitor [2]: partially restored

N#CC(=C(/N)Sc1ccccc1N)/C(C#N)=C(\N)Sc1ccccc1N [Compound U0126, reference compound]
effect of inhibitor on vacuole formation and LC3-II induced by STF-62247 (LC3): had little effect on autophagy induced by STF-62247

Oc1ccc(Nc2nc(-c3ccncc3)cs2)cc1 [Compound 25, 4-{[4-(4-Pyridinyl)-1,3-thiazol-2-yl]amino}phenol]
toxicity, vacuole formation and LC3-lipidated form (autophagy) of analogs (LC3): induced significant vacuole formation and the LC3-lipidated form | acridine orange staining / amount of AVOs [1]: consistertly higher in VHL-deficient cells | Ratio (RCC4/VHL cells): 8 | IC50 (RCC4 cells): 5.3 µM

Cc1cc(Nc2nc(-c3ccncc3)cs2)ccc1O [Compound 53, 2-Methyl-4-{[4-(4-pyridinyl)-1,3-thiazol-2-yl]amino}phenol]
toxicity, vacuole formation and LC3-lipidated form (autophagy) of analogs (LC3): no toxicity or autophagy were observed | acridine orange staining / amount of AVOs [1]: not influenced | Ratio (RCC4/VHL cells): 2.3 | IC50 (RCC4 cells): 70 µM

Oc1cccc(Nc2nc(-c3ccncc3)cs2)c1 [Compound 13, 3-{[4-(4-Pyridinyl)-1,3-thiazol-2-yl]amino}phenol]
toxicity, vacuole formation and LC3-lipidated form (autophagy) of analogs (LC3): no toxicity or autophagy were observed | acridine orange staining / amount of AVOs [1]: not influenced | Ratio (RCC4/VHL cells): >3 | IC50 (RCC4 cells): 28.5 µM

COc1cccc(Nc2nc(-c3ccncc3)cs2)c1 [Compound 15, N-(3-Methoxyphenyl)-4-(4-pyridinyl)-1,3-thiazol-2-amine]
toxicity, vacuole formation and LC3-lipidated form (autophagy) of analogs (LC3): induced significant vacuole formation and the LC3-lipidated form | acridine orange staining / amount of AVOs [1]: consistertly higher in VHL-deficient cells | Ratio (RCC4/VHL cells): 17 | IC50 (RCC4 cells): 3 µM

Cc1ccc(Nc2nc(-c3ccncc3)cs2)cc1 [Compound 21, N-(4-Methylphenyl)-4-(4-pyridinyl)-1,3-thiazol-2-amine]
toxicity, vacuole formation and LC3-lipidated form (autophagy) of analogs (LC3): induced significant vacuole formation and the LC3-lipidated form | acridine orange staining / amount of AVOs [1]: consistertly higher in VHL-deficient cells | Ratio (RCC4/VHL cells): 20 | IC50 ratio (wild-type VHL/VHL-deficient cells) (RCC4/VHL cells; structure-activity text on Tables 1 and 2): high ratio | IC50 (RCC4 cells): 2.5 µM

C[C@H]1CCC/C=C/[C@@H]2C[C@H](O)C[C@H]2[C@H](O)/C=C/C(=O)O1 [Brefeldin A, reference compound]
effect of inhibitor on vacuole formation and LC3-II induced by STF-62247 (LC3): abolished the formation of autophagic vacuoles and LC3-II | effect of inhibitor on autolysosomal acidification induced by STF-62247 [1]: resulted in a decrease in autolysosomal acidification
